Data: article PMC3444433, “The Drosophila nicotinic acetylcholine receptor subunits Dα5 and Dα7 form functional homomeric and heteromeric ion channels” (BMC Neuroscience, 2012)

Key:
Test in all cases: two-electrode voltage clamp, Xenopus oocytes
Assay type in all cases: cell-based
Settings in all cases: read-out: EC 50(μM or nM)*
[1] = target: T1, Dα5 + Dα6 nAChR (Drosophila melanogaster, UniProt Q8T7V5+Q9VL79)
T1 construct: gene nAChRalpha5; intact subunits co-injected as cRNA in Xenopus oocytes with C. elegans RIC-3; pairwise heteromer not proven (may be homomeric Dα5); stoichiometry unknown
T1 sequence (Q8T7V5 1-807): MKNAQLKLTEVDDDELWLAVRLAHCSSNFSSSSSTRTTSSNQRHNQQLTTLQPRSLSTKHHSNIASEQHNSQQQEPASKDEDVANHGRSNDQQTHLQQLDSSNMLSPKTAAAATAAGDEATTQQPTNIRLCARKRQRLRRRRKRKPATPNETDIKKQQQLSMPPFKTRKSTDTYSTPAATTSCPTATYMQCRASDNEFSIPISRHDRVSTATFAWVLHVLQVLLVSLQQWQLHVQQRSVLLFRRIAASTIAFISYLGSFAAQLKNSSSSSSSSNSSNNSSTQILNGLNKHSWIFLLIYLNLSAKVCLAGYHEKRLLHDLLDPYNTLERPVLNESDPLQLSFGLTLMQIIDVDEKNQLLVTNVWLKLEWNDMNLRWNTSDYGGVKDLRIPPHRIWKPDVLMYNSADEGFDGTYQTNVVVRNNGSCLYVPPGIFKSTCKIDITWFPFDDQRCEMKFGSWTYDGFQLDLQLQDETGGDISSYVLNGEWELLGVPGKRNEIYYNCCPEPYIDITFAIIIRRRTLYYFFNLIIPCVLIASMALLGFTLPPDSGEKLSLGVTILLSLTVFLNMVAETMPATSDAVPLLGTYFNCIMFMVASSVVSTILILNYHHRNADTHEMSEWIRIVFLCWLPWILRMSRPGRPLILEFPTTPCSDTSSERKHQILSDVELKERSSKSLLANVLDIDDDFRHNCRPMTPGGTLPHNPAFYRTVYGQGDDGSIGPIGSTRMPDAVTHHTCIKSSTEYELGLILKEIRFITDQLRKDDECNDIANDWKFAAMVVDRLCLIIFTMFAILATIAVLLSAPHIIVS
T1 sequence (Q9VL79 28-494): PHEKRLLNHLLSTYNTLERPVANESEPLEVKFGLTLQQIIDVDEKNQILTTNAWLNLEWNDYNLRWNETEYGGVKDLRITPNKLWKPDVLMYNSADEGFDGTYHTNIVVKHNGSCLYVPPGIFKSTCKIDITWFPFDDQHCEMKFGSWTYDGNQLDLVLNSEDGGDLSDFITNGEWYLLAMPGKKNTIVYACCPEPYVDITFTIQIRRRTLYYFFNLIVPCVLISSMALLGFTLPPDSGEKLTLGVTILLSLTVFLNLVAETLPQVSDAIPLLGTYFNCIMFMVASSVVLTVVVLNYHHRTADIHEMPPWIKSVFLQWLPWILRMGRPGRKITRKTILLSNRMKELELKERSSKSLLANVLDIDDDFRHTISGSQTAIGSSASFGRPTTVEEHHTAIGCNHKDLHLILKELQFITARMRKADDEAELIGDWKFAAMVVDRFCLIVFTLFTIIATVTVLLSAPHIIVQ
Excerpt: two-electrode voltage clamp, Xenopus oocytes on Dα5 + Dα6 nAChR

[2] = target: T2, homomeric Dα5 nAChR (Drosophila melanogaster, UniProt Q8T7V5)
T2 construct: gene nAChRalpha5; full-length, 807 residues, unusually large N-terminal domain; pGEMHE cRNA in Xenopus oocytes with chaperone C. elegans RIC-3; homopentamer
T2 sequence (Q8T7V5 1-807): T1 sequence (Q8T7V5 1-807)
Excerpt: two-electrode voltage clamp, Xenopus oocytes on homomeric Dα5 nAChR

[3] = target: T3, Dα5 + Dα7 nAChR (Drosophila melanogaster, UniProt Q8T7V5+Q9VWI9)
T3 construct: gene nAChRalpha5; intact subunits co-injected as cRNA in Xenopus oocytes with C. elegans RIC-3; pairwise heteromer not proven (may be homomers); stoichiometry unknown
T3 sequence (Q8T7V5 1-807): T1 sequence (Q8T7V5 1-807)
T3 sequence (Q9VWI9 59-560): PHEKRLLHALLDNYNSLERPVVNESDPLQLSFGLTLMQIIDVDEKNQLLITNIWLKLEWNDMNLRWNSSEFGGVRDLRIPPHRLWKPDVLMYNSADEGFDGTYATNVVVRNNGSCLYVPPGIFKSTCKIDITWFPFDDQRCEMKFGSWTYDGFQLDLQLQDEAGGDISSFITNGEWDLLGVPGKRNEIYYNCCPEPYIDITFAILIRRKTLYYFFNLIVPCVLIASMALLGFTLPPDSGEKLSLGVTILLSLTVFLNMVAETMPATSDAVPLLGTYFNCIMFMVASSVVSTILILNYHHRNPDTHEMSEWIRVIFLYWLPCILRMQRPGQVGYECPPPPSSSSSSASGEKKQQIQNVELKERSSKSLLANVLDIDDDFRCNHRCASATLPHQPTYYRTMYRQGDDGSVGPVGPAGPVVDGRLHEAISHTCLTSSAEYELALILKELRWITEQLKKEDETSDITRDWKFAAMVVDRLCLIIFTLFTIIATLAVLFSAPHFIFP
Excerpt: two-electrode voltage clamp, Xenopus oocytes on Dα5 + Dα7 nAChR

[4] = target: T4, homomeric Dα7 nAChR (Drosophila melanogaster, UniProt Q9VWI9)
T4 construct: gene nAChRalpha7; intact subunit; pGEMHE cRNA in Xenopus oocytes with chaperone C. elegans RIC-3; homopentamer
T4 sequence (Q9VWI9 59-560): T3 sequence (Q9VWI9 59-560)
Excerpt: two-electrode voltage clamp, Xenopus oocytes on homomeric Dα7 nAChR

## CC(=O)OCC[N+](C)(C)C [acetylcholine]
[1]
  EC50: 8.6 ± 2.4 µM
[2]
  EC50: 8.8 ± 2.5 µM
[3]
  EC50: 1.6 ± 0.3 µM
[4]
  EC50: 6.7 ± 1.7 µM
